Assay results: PMC9482650, “Quantitative fragmentomics allow affinity mapping of interactomes” (Nature Communications, 2022)
Ends that are not written are not given here.

Columns and labels:
Experiment in all cases: Holdup assay
Type in all cases: binding
DLG3_1 PDZ = DLG3_1 PDZ (Homo sapiens, UniProt Q92796); conditions: composite holdup affinity; 0.00=below quantification threshold; read-out: COMP pKd (converted)
PDZD2_3 PDZ = PDZD2_3 PDZ (Homo sapiens, UniProt O15018); conditions: sheet PPI_convert; read-out: affinity to PDZ PDZD2_3 (converted)
Sequence of PDZD2_3 PDZ (O15018 586-672 limits assumed): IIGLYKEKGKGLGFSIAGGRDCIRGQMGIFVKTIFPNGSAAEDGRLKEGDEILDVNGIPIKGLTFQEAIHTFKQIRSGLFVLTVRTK

FRMPD2_2 PDZ = FRMPD2_2 PDZ (Homo sapiens, UniProt Q68DX3); conditions: composite holdup affinity; 0.00=below quantification threshold; read-out: COMP pKd (converted)
Sequence of FRMPD2_2 PDZ (Q68DX3 950-1035 limits assumed): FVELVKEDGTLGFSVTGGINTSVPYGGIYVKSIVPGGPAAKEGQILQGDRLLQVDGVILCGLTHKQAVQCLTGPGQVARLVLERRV

GIPC2 PDZ = GIPC2 PDZ (Homo sapiens, UniProt Q8TF65); conditions: composite holdup affinity; 0.00=below quantification threshold; read-out: COMP pKd (converted)
Sequence of GIPC2 PDZ (Q8TF65 117-197 limits assumed): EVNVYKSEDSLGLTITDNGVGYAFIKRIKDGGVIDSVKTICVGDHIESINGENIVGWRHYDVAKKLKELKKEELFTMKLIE

MAGI2_2 PDZ = MAGI2_2 PDZ (Homo sapiens, UniProt Q86UL8); conditions: composite holdup affinity; 0.00=below quantification threshold; read-out: COMP pKd (converted)
Sequence of MAGI2_2 PDZ (Q86UL8 426-510 limits assumed): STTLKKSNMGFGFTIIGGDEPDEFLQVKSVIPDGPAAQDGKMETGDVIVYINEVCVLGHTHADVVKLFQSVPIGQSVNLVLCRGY

CARD14 PDZ = CARD14 PDZ (Homo sapiens, UniProt Q9BXL6); conditions: sheet PPI_convert; read-out: affinity to PDZ CARD14 (converted)
Sequence of CARD14 PDZ (Q9BXL6 568-658 limits assumed): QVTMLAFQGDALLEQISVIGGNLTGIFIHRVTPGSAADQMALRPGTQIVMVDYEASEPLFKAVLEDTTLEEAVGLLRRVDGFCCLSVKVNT

PARD3B_2 PDZ = PARD3B_2 PDZ (Homo sapiens, UniProt Q8TEW8); conditions: sheet PPI_convert; read-out: affinity to PDZ PARD3B_2 (converted)
Sequence of PARD3B_2 PDZ (Q8TEW8 383-468 limits assumed): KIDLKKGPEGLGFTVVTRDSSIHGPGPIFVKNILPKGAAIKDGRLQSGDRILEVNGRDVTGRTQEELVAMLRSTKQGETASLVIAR

PDZD2_2 PDZ = PDZD2_2 PDZ (Homo sapiens, UniProt O15018); conditions: composite holdup affinity; 0.00=below quantification threshold; read-out: COMP pKd (converted)
Sequence of PDZD2_2 PDZ (O15018 334-419 limits assumed): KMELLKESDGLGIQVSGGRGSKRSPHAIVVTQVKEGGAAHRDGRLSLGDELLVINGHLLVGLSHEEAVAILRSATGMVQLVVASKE

MAST1 PDZ = MAST1 PDZ (Homo sapiens, UniProt Q9Y2H9); conditions: composite holdup affinity; 0.00=below quantification threshold; read-out: COMP pKd (converted)
Sequence of MAST1 PDZ (Q9Y2H9 967-1055 limits assumed): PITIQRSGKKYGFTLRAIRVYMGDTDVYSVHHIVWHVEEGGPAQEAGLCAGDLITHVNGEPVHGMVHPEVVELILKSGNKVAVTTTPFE

SNX27 PDZ = SNX27 PDZ (Homo sapiens, UniProt Q96L92); conditions: composite holdup affinity; 0.00=below quantification threshold; read-out: COMP pKd (converted)
SCRIB_3 PDZ = SCRIB_3 PDZ (Homo sapiens, UniProt Q14160); conditions: composite holdup affinity; 0.00=below quantification threshold; read-out: COMP pKd (converted)
Sequence of SCRIB_3 PDZ (Q14160 1004-1093 limits assumed): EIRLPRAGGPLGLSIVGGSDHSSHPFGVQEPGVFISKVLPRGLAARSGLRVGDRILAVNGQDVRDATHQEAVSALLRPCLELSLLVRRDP

GOPC PDZ = GOPC PDZ (Homo sapiens, UniProt Q9HD26); conditions: composite holdup affinity; 0.00=below quantification threshold; read-out: COMP pKd (converted)
MPP1 PDZ = MPP1 PDZ (Homo sapiens, UniProt Q00013); conditions: sheet PPI_convert; read-out: affinity to PDZ MPP1 (converted)
Sequence of MPP1 PDZ (Q00013 71-152 limits assumed): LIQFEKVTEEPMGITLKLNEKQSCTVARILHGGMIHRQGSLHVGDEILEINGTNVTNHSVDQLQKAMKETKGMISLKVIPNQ

PDZRN4_1 PDZ = PDZRN4_1 PDZ (Homo sapiens, UniProt Q6ZMN7); conditions: composite holdup affinity; 0.00=below quantification threshold; read-out: COMP pKd (converted)
Sequence of PDZRN4_1 PDZ (Q6ZMN7 224-314 limits assumed): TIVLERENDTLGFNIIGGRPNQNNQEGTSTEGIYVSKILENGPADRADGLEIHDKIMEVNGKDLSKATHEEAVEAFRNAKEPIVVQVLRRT

SCRIB2 PDZ = biological target: T1, SCRIB2 PDZ (Homo sapiens, UniProt Q14160); conditions: composite holdup affinity; 0.00=below quantification threshold; read-out: COMP pKd (converted)
T1 sequence (Q14160 862-950 limits assumed): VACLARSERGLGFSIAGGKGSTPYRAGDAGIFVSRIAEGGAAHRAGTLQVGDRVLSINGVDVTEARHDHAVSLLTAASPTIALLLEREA

LIN7C PDZ = LIN7C PDZ (Homo sapiens, UniProt Q9NUP9); conditions: composite holdup affinity; 0.00=below quantification threshold; read-out: COMP pKd (converted)
Sequence of LIN7C PDZ (Q9NUP9 93-175 limits assumed): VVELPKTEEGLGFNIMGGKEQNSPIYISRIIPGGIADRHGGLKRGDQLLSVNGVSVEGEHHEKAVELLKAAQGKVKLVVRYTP

DLG4_1 PDZ = DLG4_1 PDZ (Homo sapiens, UniProt P78352); conditions: composite holdup affinity; 0.00=below quantification threshold; read-out: COMP pKd (converted)
Sequence of DLG4_1 PDZ (P78352 65-151): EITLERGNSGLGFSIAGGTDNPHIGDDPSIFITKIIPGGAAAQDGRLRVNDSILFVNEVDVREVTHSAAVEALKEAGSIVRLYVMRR

DLG5_2 PDZ = DLG5_2 PDZ (Homo sapiens, UniProt Q8TDM6); conditions: sheet PPI_convert; read-out: affinity to PDZ DLG5_2 (converted)
Sequence of DLG5_2 PDZ (Q8TDM6 705-796 limits assumed): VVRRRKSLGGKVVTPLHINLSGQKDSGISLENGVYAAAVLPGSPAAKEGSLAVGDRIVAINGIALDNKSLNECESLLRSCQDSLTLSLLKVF

Inadl_5 PDZ = Inadl_5 PDZ (Homo sapiens, UniProt Q8NI35); conditions: composite holdup affinity; 0.00=below quantification threshold; read-out: COMP pKd (converted)
Sequence of Inadl_5 PDZ (Q8NI35 686-772 limits assumed): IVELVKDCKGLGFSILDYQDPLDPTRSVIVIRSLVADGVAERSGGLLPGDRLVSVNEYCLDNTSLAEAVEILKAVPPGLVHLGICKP

PDZRN3_1 PDZ = PDZRN3_1 PDZ (Homo sapiens, UniProt Q9UPQ7); conditions: composite holdup affinity; 0.00=below quantification threshold; read-out: COMP pKd (converted)
Sequence of PDZRN3_1 PDZ (Q9UPQ7 249-339 limits assumed): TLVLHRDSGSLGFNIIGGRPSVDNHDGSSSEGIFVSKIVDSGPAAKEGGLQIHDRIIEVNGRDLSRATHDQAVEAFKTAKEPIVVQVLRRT

GRIP2_7 PDZ = GRIP2_7 PDZ (Homo sapiens, UniProt Q9C0E4); conditions: composite holdup affinity; 0.00=below quantification threshold; read-out: COMP pKd (converted)
Sequence of GRIP2_7 PDZ (Q9C0E4 941-1023 limits assumed): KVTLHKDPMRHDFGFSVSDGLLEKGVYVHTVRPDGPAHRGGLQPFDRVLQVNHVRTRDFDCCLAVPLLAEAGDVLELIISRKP

PDZD2_4 PDZ = PDZD2_4 PDZ (Homo sapiens, UniProt O15018); conditions: sheet PPI_convert; read-out: affinity to PDZ PDZD2_4 (converted)
Sequence of PDZD2_4 PDZ (O15018 728-813 limits assumed): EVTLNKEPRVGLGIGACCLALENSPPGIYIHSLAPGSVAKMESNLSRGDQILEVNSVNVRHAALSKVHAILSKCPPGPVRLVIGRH

DVL1 PDZ = DVL1 PDZ (Homo sapiens, UniProt O14640); conditions: sheet PPI_convert; read-out: affinity to PDZ DVL1 (converted)
Sequence of DVL1 PDZ (O14640 251-323 limits assumed): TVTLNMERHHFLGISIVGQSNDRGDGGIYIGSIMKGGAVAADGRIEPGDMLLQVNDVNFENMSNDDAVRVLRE

GRIP2_6 PDZ = GRIP2_6 PDZ (Homo sapiens, UniProt Q9C0E4); conditions: composite holdup affinity; 0.00=below quantification threshold; read-out: COMP pKd (converted)
Sequence of GRIP2_6 PDZ (Q9C0E4 656-738 limits assumed): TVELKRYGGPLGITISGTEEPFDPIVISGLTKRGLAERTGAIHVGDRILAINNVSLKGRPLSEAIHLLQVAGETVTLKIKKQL

MAGI1_5 PDZ = MAGI1_5 PDZ (Homo sapiens, UniProt Q96QZ7); conditions: sheet PPI_convert; read-out: affinity to PDZ MAGI1_5 (converted)
Sequence of MAGI1_5 PDZ (Q96QZ7 970-1066 limits assumed): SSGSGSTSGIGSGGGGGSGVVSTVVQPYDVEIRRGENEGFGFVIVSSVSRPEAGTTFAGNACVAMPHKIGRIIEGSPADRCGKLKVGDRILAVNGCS

FRMPD3 PDZ = FRMPD3 PDZ (Homo sapiens, UniProt Q5JV73); conditions: composite holdup affinity; 0.00=below quantification threshold; read-out: COMP pKd (converted)
Sequence of FRMPD3 PDZ (Q5JV73 21-98 limits assumed): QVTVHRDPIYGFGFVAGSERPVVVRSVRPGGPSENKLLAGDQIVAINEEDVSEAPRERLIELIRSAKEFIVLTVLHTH

MAGI1_3 PDZ = MAGI1_3 PDZ (Homo sapiens, UniProt Q96QZ7); conditions: sheet PPI_convert; read-out: affinity to PDZ MAGI1_3 (converted)
Sequence of MAGI1_3 PDZ (Q96QZ7 643-721 limits assumed): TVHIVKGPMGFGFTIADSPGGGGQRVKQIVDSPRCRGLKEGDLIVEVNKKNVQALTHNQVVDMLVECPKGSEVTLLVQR

FRMPD2_3 PDZ = FRMPD2_3 PDZ (Homo sapiens, UniProt Q68DX3); conditions: composite holdup affinity; 0.00=below quantification threshold; read-out: COMP pKd (converted)
Sequence of FRMPD2_3 PDZ (Q68DX3 1079-1167 limits assumed): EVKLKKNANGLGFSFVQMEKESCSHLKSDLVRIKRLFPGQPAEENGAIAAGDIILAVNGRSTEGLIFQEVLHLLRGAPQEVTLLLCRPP

HTRA1 PDZ = HTRA1 PDZ (Homo sapiens, UniProt Q92743); conditions: composite holdup affinity; 0.00=below quantification threshold; read-out: COMP pKd (converted)
Sequence of HTRA1 PDZ (Q92743 365-467 limits assumed): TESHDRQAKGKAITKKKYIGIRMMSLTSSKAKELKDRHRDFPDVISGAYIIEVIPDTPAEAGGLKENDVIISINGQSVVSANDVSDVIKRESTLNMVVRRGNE

MAGIX PDZ = MAGIX PDZ (Homo sapiens, UniProt Q9H6Y5); conditions: sheet PPI_convert; read-out: affinity to PDZ MAGIX (converted)
Sequence of MAGIX PDZ (Q9H6Y5 125-209): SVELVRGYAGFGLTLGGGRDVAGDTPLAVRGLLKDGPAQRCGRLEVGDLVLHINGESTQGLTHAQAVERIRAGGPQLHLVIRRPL
Text: Supplement 41467_2022_33018_MOESM4_ESM.xlsx, sheet "PPI_convert" | column: MAGIX

FRMPD2_1 PDZ = FRMPD2_1 PDZ (Homo sapiens, UniProt Q68DX3); conditions: composite holdup affinity; 0.00=below quantification threshold; read-out: COMP pKd (converted)
Sequence of FRMPD2_1 PDZ (Q68DX3 775-861 limits assumed): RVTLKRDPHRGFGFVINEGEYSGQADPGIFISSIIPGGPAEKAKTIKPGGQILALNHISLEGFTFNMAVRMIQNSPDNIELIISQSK

IL16_1 PDZ = IL16_1 PDZ (Homo sapiens, UniProt Q14005); conditions: composite holdup affinity; 0.00=below quantification threshold; read-out: COMP pKd (converted)
Sequence of IL16_1 PDZ (Q14005 216-302 limits assumed): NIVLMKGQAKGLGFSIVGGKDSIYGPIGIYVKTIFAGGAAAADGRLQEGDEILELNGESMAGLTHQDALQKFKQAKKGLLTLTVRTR

MAGI2_6 PDZ = MAGI2_6 PDZ (Homo sapiens, UniProt Q86UL8); conditions: composite holdup affinity; 0.00=below quantification threshold; read-out: COMP pKd (converted)
Sequence of MAGI2_6 PDZ (Q86UL8 1147-1229 limits assumed): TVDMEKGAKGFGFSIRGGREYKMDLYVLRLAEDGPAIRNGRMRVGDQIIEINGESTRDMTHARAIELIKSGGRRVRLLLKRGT

LIN7B PDZ = LIN7B PDZ (Homo sapiens, UniProt Q9HAP6); conditions: composite holdup affinity; 0.00=below quantification threshold; read-out: COMP pKd (converted)
Sequence of LIN7B PDZ (Q9HAP6 93-175 limits assumed): as the sequence (Q9NUP9 93-175 limits assumed) above, with E8D, I30V, I35V, H60Q, K74S counted along it

Sequence of DLG3_1 PDZ (Q92796 130-217 limits assumed): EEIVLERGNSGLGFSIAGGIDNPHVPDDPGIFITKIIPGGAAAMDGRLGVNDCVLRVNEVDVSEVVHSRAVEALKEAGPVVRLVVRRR

Q: How did the Kd (DLG3_1 PDZ) turn out when RTRQRNETQV [HPV51-E6] was run?
A: 52.5 µM

Q: And the Kd (PDZD2_3 PDZ)?
A: 60.3 µM

Q: What about the Kd (FRMPD2_2 PDZ) of the same sequence?
A: 389 µM

Q: And the Kd (GIPC2 PDZ)?
A: 234 µM

Q: And the Kd (MAGI2_2 PDZ)?
A: 0.219 µM

Q: And the Kd (CARD14 PDZ)?
A: 45.7 µM

Q: And the Kd (PARD3B_2 PDZ)?
A: 40.7 µM

Q: What about the Kd (PDZD2_2 PDZ) of the same sequence?
A: 263 µM

Q: What about the Kd (MAST1 PDZ) of the same sequence?
A: 58.9 µM

Q: What about the Kd (SNX27 PDZ) of the same sequence?
A: 14.1 µM

Q: And the Kd (SCRIB_3 PDZ)?
A: 67.6 µM

Q: And the Kd (GOPC PDZ)?
A: 191 µM

Q: And the Kd (MPP1 PDZ)?
A: 1.55 µM

Q: What about the Kd (PDZRN4_1 PDZ) of the same sequence?
A: 69.2 µM

Q: And the Kd (SCRIB2 PDZ)?
A: 40.7 µM

Q: What about the Kd (LIN7C PDZ) of the same sequence?
A: 145 µM

Q: What about the Kd (DLG4_1 PDZ) of the same sequence?
A: 12.6 µM

Q: What about the Kd (DLG5_2 PDZ) of the same sequence?
A: 23.4 µM

Q: And the Kd (Inadl_5 PDZ)?
A: 398 µM

Q: What about the Kd (PDZRN3_1 PDZ) of the same sequence?
A: 87.1 µM

Q: And the Kd (GRIP2_7 PDZ)?
A: 331 µM

Q: And the Kd (PDZD2_4 PDZ)?
A: 45.7 µM

Q: What about the Kd (DVL1 PDZ) of the same sequence?
A: 13.8 µM

Q: With RHTTSTETAV [HPV30-E6] as the sequence, how does the Kd (DLG3_1 PDZ) read?
A: 35.5 µM

Q: And the Kd (FRMPD2_2 PDZ)?
A: 58.9 µM

Q: What about the Kd (GRIP2_6 PDZ) of the same sequence?
A: 170 µM

Q: What about the Kd (MAGI1_5 PDZ) of the same sequence?
A: 9.55 µM

Q: What about the Kd (GIPC2 PDZ) of the same sequence?
A: 110 µM

Q: What about the Kd (MAGI2_2 PDZ) of the same sequence?
A: 9.12 µM

Q: What about the Kd (FRMPD3 PDZ) of the same sequence?
A: 174 µM

Q: And the Kd (MAGI1_3 PDZ)?
A: 19.1 µM

Q: What about the Kd (FRMPD2_3 PDZ) of the same sequence?
A: 135 µM

Q: And the Kd (HTRA1 PDZ)?
A: 186 µM

Q: And the Kd (PDZD2_2 PDZ)?
A: 38 µM

Q: What about the Kd (MAST1 PDZ) of the same sequence?
A: 21.9 µM

Q: And the Kd (SNX27 PDZ)?
A: 2.29 µM

Q: What about the Kd (MAGIX PDZ) of the same sequence?
A: 4.47 µM

Q: What about the Kd (SCRIB_3 PDZ) of the same sequence?
A: 9.55 µM

Q: And the Kd (GOPC PDZ)?
A: 72.4 µM

Q: And the Kd (MPP1 PDZ)?
A: 6.76 µM

Q: What about the Kd (PDZRN4_1 PDZ) of the same sequence?
A: 29.5 µM

Q: And the Kd (SCRIB2 PDZ)?
A: 7.76 µM

Q: What about the Kd (LIN7C PDZ) of the same sequence?
A: 64.6 µM

Q: What about the Kd (FRMPD2_1 PDZ) of the same sequence?
A: 72.4 µM

Q: What about the Kd (DLG4_1 PDZ) of the same sequence?
A: 12 µM

Q: What about the Kd (PDZRN3_1 PDZ) of the same sequence?
A: 20.9 µM

Q: What about the Kd (GRIP2_7 PDZ) of the same sequence?
A: 145 µM

Q: What about the Kd (IL16_1 PDZ) of the same sequence?
A: 83.2 µM

Q: And the Kd (PDZD2_4 PDZ)?
A: 16.6 µM

Q: What about the Kd (MAGI2_6 PDZ) of the same sequence?
A: 64.6 µM

Q: What about the Kd (LIN7B PDZ) of the same sequence?
A: 195 µM
